{"source": "patent US10294202B2", "about": "“Pyrrolidinones as herbicides” (FMC Corporation, priority 2013, dated 2019)", "key": {"wheat (winter wheat)": {"test_system": "wheat (winter wheat)", "test": "Test C pre-/postemergence herbicide test", "format": "in vivo, Triticum aestivum", "in_short": "(§1)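 Pre- and postemergence greenhouse screen. Preemergence treatment went onto freshly planted seeds in loam–sand soil; postemergence treatment went onto plants 2 to 18 cm tall at the 1- to 4-leaf stage in sphagnum peat/vermiculite medium. Scoring at 13 to 15 days used a 0–100 control scale.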"}, "galium": {"test_system": "galium", "test": "Test C pre-/postemergence herbicide test", "format": "in vivo, Galium aparine", "details": "Preemergence", "in_short": "as §1"}, "barnyardgrass [1]": {"test_system": "barnyardgrass", "test": "Test A pre-/postemergence herbicide test", "format": "in vivo, Echinochloa crus-galli", "in_short": "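Visual injury ratings, 0 = no effect, 100 = complete control, taken ~10 days after treatment against untreated greenhouse controls. Preemergence: directed soil spray onto seeded loam/sand pots. Postemergence: spray onto plants at one- to two-leaf stage, 2–10 cm tall.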"}, "soybean": {"test_system": "soybean", "test": "Test C pre-/postemergence herbicide test", "format": "in vivo, Glycine max", "in_short": "as §1"}, "blackgrass": {"test_system": "blackgrass", "test": "Test C pre-/postemergence herbicide test", "format": "in vivo, Alopecurus myosuroides", "in_short": "as §1"}, "foxtail, giant": {"test_system": "foxtail, giant", "test": "Test C pre-/postemergence herbicide test", "format": "in vivo, Setaria faberii", "in_short": "as §1"}, "barnyardgrass [2]": {"test_system": "barnyardgrass", "test": "Test C pre-/postemergence herbicide test", "format": "in vivo, Echinochloa crus-galli", "in_short": "as §1"}, "oilseed rape": {"test_system": "oilseed rape", "test": "Test C pre-/postemergence herbicide test", "format": "in vivo, Brassica napus", "in_short": "as §1"}, "velvetleaf": {"test_system": "velvetleaf", "test": "Test C pre-/postemergence herbicide test", "format": "in vivo, Abutilon theophrasti", "in_short": "as §1"}, "oat, wild": {"test_system": "oat, wild", "test": "Test C pre-/postemergence herbicide test", "format": "in vivo, Avena fatua", "details": "Postemergence", "in_short": "as §1"}, "pigweed": {"test_system": "pigweed", "test": "Test C pre-/postemergence herbicide test", "format": "in vivo, Amaranthus retroflexus", "in_short": "as §1"}, "crabgrass, large": {"test_system": "crabgrass, large", "test": "Test C pre-/postemergence herbicide test", "format": "in vivo, Digitaria sanguinalis", "in_short": "as §1"}, "[3]": {"details": "Postemergence, 31 g ai/ha, scale 0 to 100 (0 no effect, 100 complete control)"}, "[4]": {"details": "Postemergence, 62 g ai/ha, scale 0 (no effect) to 100 (complete control)"}, "[5]": {"details": "Postemergence, 125 g ai/ha, scale 0 to 100 (0 no effect, 100 complete control)"}, "[6]": {"details": "Postemergence, 250 g ai/ha, scale 0 to 100 (0 no effect, 100 complete control)"}, "[7]": {"details": "Preemergence, 31 g ai/ha, scale 0 to 100, 0 is no effect and 100 is complete control"}, "[8]": {"details": "Preemergence, 62 g ai/ha, scale 0 to 100"}, "[9]": {"details": "Preemergence, 125 g ai/ha, scale 0 to 100 (0 no effect, 100 complete control)"}, "[10]": {"details": "125 g ai/ha, scale 0 to 100 (0 no effect, 100 complete control)"}}}
{"compound": "O=C1NCC(c2ccc(F)cc2)C1C(=O)Nc1ccc(F)c(F)c1F", "note": "(racemic) [Compound 120]", "values": [{"measurement": "Plant response rating, Wheat", "setting": "wheat (winter wheat); [3]", "value": 0}, {"measurement": "Plant response rating, Wheat", "setting": "wheat (winter wheat); [4]", "value": 0}, {"measurement": "Plant response rating, Wheat", "setting": "wheat (winter wheat); [5]", "value": 0}, {"measurement": "Plant response rating, Wheat", "setting": "wheat (winter wheat); [6]", "value": 0}, {"measurement": "Wheat plant response rating", "setting": "wheat (winter wheat); [7]", "value": 10}, {"measurement": "Plant response rating, Wheat", "setting": "wheat (winter wheat); [8]", "value": 35}, {"measurement": "Plant response rating, Wheat", "setting": "wheat (winter wheat); [9]", "value": 30}, {"measurement": "Plant response rating (scale of 0 to 100), Wheat", "setting": "wheat (winter wheat); Preemergence, 250 g ai/ha", "value": 85}, {"measurement": "Galium plant response rating", "setting": "galium; 31 g ai/ha, scale 0 to 100, 0 is no effect and 100 is complete control", "value": 5}, {"measurement": "Plant response rating, Galium", "setting": "galium; 62 g ai/ha, scale 0 to 100", "value": 95}, {"measurement": "Plant response rating, Galium", "setting": "galium; [10]", "value": 50}, {"measurement": "Plant response rating (scale of 0 to 100), Galium", "setting": "galium; 250 g ai/ha", "value": 90}, {"measurement": "Plant response rating, Barnyardgrass", "setting": "barnyardgrass [1]; 125 g ai/ha, visual rating, 0 to 100 scale, 0 no effect, 100 complete control, approximately 10 days, preemergence", "value": 90}, {"measurement": "Plant response rating, Barnyardgrass", "setting": "barnyardgrass [1]; Postemergence, 125 g ai/ha, 0 to 100 scale, 0 no effect, 100 complete control", "value": 80}, {"measurement": "Plant response rating, Barnyardgrass", "setting": "barnyardgrass [1]; Postemergence, 500 g ai/ha, 0 to 100 scale (0 no effect, 100 complete control)", "value": 90}, {"measurement": "Plant response rating, Barnyardgrass", "setting": "barnyardgrass [1]; preemergence, 500 g ai/ha, 0 to 100 scale (0 no effect, 100 complete control)", "value": 90}, {"measurement": "Plant response rating, Soybean", "setting": "soybean; [3]", "value": 0}, {"measurement": "Plant response rating, Soybean", "setting": "soybean; [4]", "value": 0}, {"measurement": "Plant response rating, Soybean", "setting": "soybean; [5]", "value": 0}, {"measurement": "Plant response rating, Soybean", "setting": "soybean; [6]", "value": 0}, {"measurement": "Soybean plant response rating", "setting": "soybean; [7]", "value": 0}, {"measurement": "Plant response rating, Soybean", "setting": "soybean; [8]", "value": 0}, {"measurement": "Plant response rating, Soybean", "setting": "soybean; [9]", "value": 0}, {"measurement": "Plant response rating (scale of 0 to 100), Soybean", "setting": "soybean; Preemergence, 250 g ai/ha", "value": 0}, {"measurement": "Plant response rating, Blackgrass", "setting": "blackgrass; [3]", "value": 0}, {"measurement": "Plant response rating, Blackgrass", "setting": "blackgrass; [4]", "value": 0}, {"measurement": "Plant response rating, Blackgrass", "setting": "blackgrass; [5]", "value": 0}, {"measurement": "Plant response rating, Blackgrass", "setting": "blackgrass; [6]", "value": 0}, {"measurement": "Blackgrass plant response rating", "setting": "blackgrass; [7]", "value": 35}, {"measurement": "Plant response rating, Blackgrass", "setting": "blackgrass; [8]", "value": 50}, {"measurement": "Plant response rating, Blackgrass", "setting": "blackgrass; [9]", "value": 50}, {"measurement": "Plant response rating (scale of 0 to 100), Blackgrass", "setting": "blackgrass; Preemergence, 250 g ai/ha", "value": 70}, {"measurement": "Plant response rating, Foxtail, Giant", "setting": "foxtail, giant; [3]", "value": 25}, {"measurement": "Plant response rating, Foxtail, Giant", "setting": "foxtail, giant; [4]", "value": 65}, {"measurement": "Plant response rating, Foxtail, Giant", "setting": "foxtail, giant; [5]", "value": 75}, {"measurement": "Plant response rating, Foxtail, Giant", "setting": "foxtail, giant; [6]", "value": 85}, {"measurement": "Foxtail, Giant plant response rating", "setting": "foxtail, giant; [7]", "value": 90}, {"measurement": "Plant response rating, Foxtail, Giant", "setting": "foxtail, giant; [8]", "value": 95}, {"measurement": "Plant response rating, Foxtail, Giant", "setting": "foxtail, giant; [9]", "value": 98}, {"measurement": "Plant response rating (scale of 0 to 100), Foxtail, Giant", "setting": "foxtail, giant; Preemergence, 250 g ai/ha", "value": 98}, {"measurement": "Plant response rating, Barnyardgrass", "setting": "barnyardgrass [2]; [3]", "value": 0}, {"measurement": "Plant response rating, Barnyardgrass", "setting": "barnyardgrass [2]; [4]", "value": 30}, {"measurement": "Plant response rating, Barnyardgrass", "setting": "barnyardgrass [2]; [5]", "value": 40}, {"measurement": "Plant response rating, Barnyardgrass", "setting": "barnyardgrass [2]; [6]", "value": 65}, {"measurement": "Barnyardgrass plant response rating", "setting": "barnyardgrass [2]; [7]", "value": 85}, {"measurement": "Plant response rating, Barnyardgrass", "setting": "barnyardgrass [2]; [8]", "value": 90}, {"measurement": "Plant response rating, Barnyardgrass", "setting": "barnyardgrass [2]; [9]", "value": 95}, {"measurement": "Plant response rating (scale of 0 to 100; 0 is no effect, 100 is complete control), Barnyardgrass", "setting": "barnyardgrass [2]; Preemergence, 250 g ai/ha", "value": 98}, {"measurement": "Plant response rating, Oilseed Rape", "setting": "oilseed rape; [3]", "value": 0}, {"measurement": "Plant response rating, Oilseed Rape", "setting": "oilseed rape; [4]", "value": 0}, {"measurement": "Plant response rating, Oilseed Rape", "setting": "oilseed rape; [5]", "value": 0}, {"measurement": "Plant response rating, Oilseed Rape", "setting": "oilseed rape; [6]", "value": 0}, {"measurement": "Oilseed Rape plant response rating", "setting": "oilseed rape; [7]", "value": 0}, {"measurement": "Plant response rating, Oilseed Rape", "setting": "oilseed rape; [8]", "value": 0}, {"measurement": "Plant response rating, Oilseed Rape", "setting": "oilseed rape; [9]", "value": 70}, {"measurement": "Plant response rating (scale of 0 to 100), Oilseed Rape", "setting": "oilseed rape; Preemergence, 250 g ai/ha", "value": 90}, {"measurement": "Plant response rating, Velvetleaf", "setting": "velvetleaf; [3]", "value": 25}, {"measurement": "Plant response rating, Velvetleaf", "setting": "velvetleaf; [4]", "value": 0}, {"measurement": "Plant response rating, Velvetleaf", "setting": "velvetleaf; [5]", "value": 5}, {"measurement": "Plant response rating, Velvetleaf", "setting": "velvetleaf; [6]", "value": 25}, {"measurement": "Velvetleaf plant response rating", "setting": "velvetleaf; [7]", "value": 0}, {"measurement": "Plant response rating, Velvetleaf", "setting": "velvetleaf; [8]", "value": 20}, {"measurement": "Plant response rating, Velvetleaf", "setting": "velvetleaf; [9]", "value": 35}, {"measurement": "Plant response rating (scale of 0 to 100), Velvetleaf", "setting": "velvetleaf; Preemergence, 250 g ai/ha", "value": 40}, {"measurement": "Plant response rating, Oat, Wild", "setting": "oat, wild; 31 g ai/ha, scale 0 to 100 (0 no effect, 100 complete control)", "value": 0}, {"measurement": "Plant response rating, Oat, Wild", "setting": "oat, wild; 62 g ai/ha, scale 0 (no effect) to 100 (complete control)", "value": 0}, {"measurement": "Plant response rating, Oat, Wild", "setting": "oat, wild; [10]", "value": 0}, {"measurement": "Plant response rating, Oat, Wild", "setting": "oat, wild; 250 g ai/ha, scale 0 to 100 (0 no effect, 100 complete control)", "value": 0}, {"measurement": "Plant response rating, Pigweed", "setting": "pigweed; [3]", "value": 5}, {"measurement": "Plant response rating, Pigweed", "setting": "pigweed; [4]", "value": 20}, {"measurement": "Plant response rating, Pigweed", "setting": "pigweed; [5]", "value": 40}, {"measurement": "Plant response rating, Pigweed", "setting": "pigweed; [6]", "value": 60}, {"measurement": "Pigweed plant response rating", "setting": "pigweed; [7]", "value": 50}, {"measurement": "Plant response rating, Pigweed", "setting": "pigweed; [8]", "value": 45}, {"measurement": "Plant response rating, Pigweed", "setting": "pigweed; [9]", "value": 65}, {"measurement": "Plant response rating (scale of 0 to 100), Pigweed", "setting": "pigweed; Preemergence, 250 g ai/ha", "value": 80}, {"measurement": "Plant response rating, Crabgrass, Large", "setting": "crabgrass, large; [3]", "value": 55}, {"measurement": "Plant response rating, Crabgrass, Large", "setting": "crabgrass, large; [4]", "value": 70}, {"measurement": "Plant response rating, Crabgrass, Large", "setting": "crabgrass, large; [5]", "value": 70}, {"measurement": "Plant response rating, Crabgrass, Large", "setting": "crabgrass, large; [6]", "value": 75}, {"measurement": "Crabgrass, Large plant response rating", "setting": "crabgrass, large; [7]", "value": 98}, {"measurement": "Plant response rating, Crabgrass, Large", "setting": "crabgrass, large; [8]", "value": 100}, {"measurement": "Plant response rating, Crabgrass, Large", "setting": "crabgrass, large; [9]", "value": 100}, {"measurement": "Plant response rating (scale of 0 to 100), Crabgrass, Large", "setting": "crabgrass, large; Preemergence, 250 g ai/ha", "value": 100}]}
